Data as given in patent publication US11168083B2, “Inhibitors of Plasma Kallikrein and uses thereof” (Takeda Pharmaceutical Company Limited, priority 2017, dated 2021).
Like-named read-outs stand apart in the source and are kept apart here. Values belong to the molecule of their own block, whether it stands above or below them.

Legend:
Assay type in all cases: biochemical
Thrombin = Thrombin (Homo sapiens (Human), UniProt P00734); assay: Selectivity screen of serine proteases, anti-target panel: Thrombin
Procedure: (§1) Compounds 11, 33, and 53 were evaluated in a selectivity screen of serine proteases.

Elastase = assay: Selectivity screen of serine proteases, anti-target panel: Elastase
Procedure: as §1

Trypsin = assay: Selectivity screen of serine proteases, anti-target panel: Trypsin
Procedure: as §1

[1] = test system: selected anti-target proteases; assay: Selectivity screen of serine proteases (overall statement); details: none showed any inhibitory activity of the anti-target proteases
Procedure: as §1

[2] = target: human activated kallikrein enzyme (Homo sapiens (Human), UniProt P03952); assay: Inhibition of human activated kallikrein enzyme, fluorogenic peptide substrate assay (two formats); details: read-out: pKal EC50
Method in brief: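 Fluorogenic Pro-Phe-Arg-AMC substrate (300 uM) in 20 mM Tris pH 7.5, 150 mM NaCl, 1 mM EDTA, 0.1% PEG-400, 0.1% Triton X-100; enzyme and inhibitor preincubated 30 min at room temperature. Format one: 500 pM enzyme, 10 min reaction; format two: 5 pM enzyme, 18 hr reaction. Fluorescence read at 380 nm excitation/460 nm emission.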

FXa = FXa (Homo sapiens (Human), UniProt P00742); assay: Selectivity screen of serine proteases, anti-target panel: FXa
Procedure: as §1

[3] = Table 2, column head prints nM, ranges defined in μM

Chain of human activated kallikrein enzyme (P03952 391-638): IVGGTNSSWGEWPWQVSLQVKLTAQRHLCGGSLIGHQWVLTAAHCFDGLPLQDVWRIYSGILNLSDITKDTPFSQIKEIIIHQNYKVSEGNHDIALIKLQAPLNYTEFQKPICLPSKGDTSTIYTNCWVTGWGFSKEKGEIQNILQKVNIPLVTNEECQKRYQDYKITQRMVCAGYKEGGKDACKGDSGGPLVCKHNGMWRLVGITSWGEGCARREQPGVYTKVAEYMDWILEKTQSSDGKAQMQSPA
Chain of human activated kallikrein enzyme (P03952 20-390 partner): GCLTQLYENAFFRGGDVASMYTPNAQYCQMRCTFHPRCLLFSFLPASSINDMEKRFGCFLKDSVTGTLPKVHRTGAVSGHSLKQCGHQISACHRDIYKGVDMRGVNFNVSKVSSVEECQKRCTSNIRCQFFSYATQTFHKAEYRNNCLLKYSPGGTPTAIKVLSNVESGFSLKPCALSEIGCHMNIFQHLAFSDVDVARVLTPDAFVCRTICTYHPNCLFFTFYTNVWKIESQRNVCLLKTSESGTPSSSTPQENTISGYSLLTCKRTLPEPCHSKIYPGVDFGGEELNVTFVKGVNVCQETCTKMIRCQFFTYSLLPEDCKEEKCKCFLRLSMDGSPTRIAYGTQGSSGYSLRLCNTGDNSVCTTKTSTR
Chain of FXa (P00742 235-488): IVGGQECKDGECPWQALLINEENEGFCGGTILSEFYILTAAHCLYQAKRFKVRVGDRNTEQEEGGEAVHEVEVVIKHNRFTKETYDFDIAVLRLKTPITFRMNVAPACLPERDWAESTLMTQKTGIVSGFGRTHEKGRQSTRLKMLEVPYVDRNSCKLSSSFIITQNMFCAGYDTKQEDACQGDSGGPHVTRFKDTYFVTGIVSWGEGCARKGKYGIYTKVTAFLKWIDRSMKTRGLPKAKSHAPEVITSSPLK
Chain of FXa (P00742 41-179 partner): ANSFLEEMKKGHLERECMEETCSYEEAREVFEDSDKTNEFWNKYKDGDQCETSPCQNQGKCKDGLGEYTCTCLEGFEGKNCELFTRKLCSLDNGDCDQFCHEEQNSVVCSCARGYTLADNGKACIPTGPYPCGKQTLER

IC50 (Thrombin): > 10000 nM
IC50 (Elastase): > 10000 nM
IC50 (Trypsin): > 100000 nM
EC50 [2, 3]: ≤ 100 nM
EC50 ([2]; Table 3): 32 nM
IC50 (FXa): > 10000 nM
Compound: CNC(=O)[C@H](CCCCNC(=N)N)NC(=O)c1csc([C@@H]2C[C@@H](N)CN2C(=O)c2cn3cc(Cl)ccc3n2)n1 [Compound 11, 2-((2S,4R)-4-amino-1-(6-chloroimidazo[1,2-a]pyridine-2-carbonyl)pyrrolidin-2-yl)-N—((S)-6-guanidino-1-(methylamino)-1-oxohexan-2-yl)thiazole-4-carboxamide]
Selectivity for pKal over selected anti-target proteases [1]: selective inhibitors of pKal

IC50 (Thrombin): > 10000 nM
IC50 (Elastase): > 10000 nM
IC50 (Trypsin): > 100000 nM
EC50 [2, 3]: 1000 to 5000 nM
EC50 ([2]; Table 3): 3240 nM
IC50 (FXa): > 10000 nM
Compound: CNC(=O)[C@H](CCCCNC(=N)N)NC(=O)c1csc([C@@H]2CCCN2C(=O)c2cn3cc(Cl)ccc3n2)n1 [Compound 33, 2-((S)-1-(6-Chloroimidazo[1,2-a]pyridine-2-carbonyl)pyrrolidin-2-yl)-N—((S)-6-guanidino-1-(methylamino)-1-oxohexan-2-yl)thiazole-4-carboxamide]
Selectivity for pKal over selected anti-target proteases [1]: selective inhibitors of pKal

IC50 (Thrombin): > 10000 nM
IC50 (Elastase): > 10000 nM
IC50 (Trypsin): > 100000 nM
EC50 [2, 3]: ≤ 100 nM
EC50 ([2]; Table 3): 15 nM
IC50 (FXa): > 10000 nM
Compound: Nc1nccc2cc(CCNC(=O)c3csc([C@@H]4C[C@@H](N)CN4C(=O)c4cn5cc(Cl)ccc5n4)n3)ccc12 [Compound 53, 2-((2S,4R)-4-amino-1-(6-chloroimidazo[1,2-a]pyridine-2-carbonyl)pyrrolidin-2-yl)-N-(2-(1-aminoisoquinolin-6-yl)ethyl)thiazole-4-carboxamide]
Selectivity for pKal over selected anti-target proteases [1]: selective inhibitors of pKal

EC50 [2, 3]: 5000 to 9900 nM
Compound: N[C@@H]1C[C@@H](c2nc(C(=O)NCc3n[nH]c4ccc(Cl)cc34)cs2)N(C(=O)c2cn3cc(Cl)ccc3n2)C1 [Compound 58, 2-((2S,4R)-4-amino-1-(6-chloroimidazo[1,2-a]pyridine-2-carbonyl)pyrrolidin-2-yl)-N-((5-chloro-1H-indazol-3-yl)methyl)thiazole-4-carboxamide]

EC50 [2, 3]: > 9900 nM
Compound: N[C@@H]1C[C@@H](c2nc(C(=O)NCc3n[nH]c4cc(Cl)ccc34)cs2)N(C(=O)c2cn3cc(Cl)ccc3n2)C1 [Compound 59, 2-((2S,4R)-4-amino-1-(6-chloroimidazo[1,2-a]pyridine-2-carbonyl)pyrrolidin-2-yl)-N-((6-chloro-1H-indazol-3-yl)methyl)thiazole-4-carboxamide]

EC50 [2, 3]: ≤ 100 nM
Compound: Cc1cc2c(N)nccc2c(C)c1CNC(=O)c1csc([C@@H]2C[C@@H](N)CN2C(=O)c2cn3cc(Cl)ccc3n2)n1 [Compound 60, 2-((2S,4R)-4-amino-1-(6-chloroimidazo[1,2-a]pyridine-2-carbonyl)pyrrolidin-2-yl)-N-((1-amino-5,7-dimethylisoquinolin-6-yl)methyl)thiazole-4-carboxamide]

EC50 [2, 3]: 100 to 1000 nM
Compound: CNC(=O)[C@H](CCCCNC(=N)N)NC(=O)c1csc([C@@H]2C[C@@H](N)CN2C(=O)c2cc3cc(Cl)c(Cl)cc3s2)n1 [Compound 61, 2-((2S,4R)-4-amino-1-(5,6-dichlorobenzo[b]thiophene-2-carbonyl)pyrrolidin-2-yl)-N—((S)-6-guanidino-1-(methylamino)-1-oxohexan-2-yl)thiazole-4-carboxamide]

EC50 [2, 3]: 100 to 1000 nM
Compound: CNC(=O)[C@H](CCCCNC(=N)N)NC(=O)c1csc([C@@H]2C[C@@H](N)CN2C(=O)c2cc3ccc(Cl)cc3s2)n1 [Compound 62, 2-((2S,4R)-4-amino-1-(6-chlorobenzo[b]thiophene-2-carbonyl)pyrrolidin-2-yl)-N—((S)-6-guanidino-1-(methylamino)-1-oxohexan-2-yl)thiazole-4-carboxamide]

EC50 [2, 3]: 1000 to 5000 nM
Compound: CNC(=O)[C@H](CCCCNC(=N)N)NC(=O)c1csc([C@@H]2C[C@@H](N)CN2C(=O)c2cc3c(Cl)cccc3s2)n1 [Compound 63, 2-((2S,4R)-4-amino-1-(4-chlorobenzo[b]thiophene-2-carbonyl)pyrrolidin-2-yl)-N—((S)-6-guanidino-1-(methylamino)-1-oxohexan-2-yl)thiazole-4-carboxamide]

EC50 [2, 3]: 100 to 1000 nM
Compound: CNC(=O)[C@H](CCCCNC(=N)N)NC(=O)c1csc([C@@H]2C[C@@H](N)CN2C(=O)c2cc3cc(C(F)(F)F)ccc3s2)n1 [Compound 64, 2-((2S,4R)-4-amino-1-(5-(trifluoromethyl)benzo[b]thiophene-2-carbonyl)pyrrolidin-2-yl)-N—((S)-6-guanidino-1-(methylamino)-1-oxohexan-2-yl)thiazole-4-carboxamide]

EC50 [2, 3]: 100 to 1000 nM
Compound: CNC(=O)[C@H](CCCCNC(=N)N)NC(=O)c1csc([C@@H]2C[C@@H](N)CN2C(=O)c2cc3ccc(C)cc3s2)n1 [Compound 65, 2-((2S,4R)-4-amino-1-(6-methylbenzo[b]thiophene-2-carbonyl)pyrrolidin-2-yl)-N—((S)-6-guanidino-1-(methylamino)-1-oxohexan-2-yl)thiazole-4-carboxamide]

EC50 [2, 3]: 100 to 1000 nM
Compound: CNC(=O)[C@H](CCCCNC(=N)N)NC(=O)c1csc([C@@H]2C[C@@H](N)CN2C(=O)c2cnc3ccc(Cl)cc3c2)n1 [Compound 66, 2-((2S,4R)-4-amino-1-(6-chloroquinoline-3-carbonyl)pyrrolidin-2-yl)-N—((S)-6-guanidino-1-(methylamino)-1-oxohexan-2-yl)thiazole-4-carboxamide]

EC50 [2, 3]: 1000 to 5000 nM
Compound: CNC(=O)[C@H](CCCCNC(=N)N)NC(=O)c1csc([C@@H]2C[C@@H](N)CN2C(=O)c2ccc3nc(Cl)ccc3c2)n1 [Compound 67, 2-((2S,4R)-4-amino-1-(2-chloroquinoline-6-carbonyl)pyrrolidin-2-yl)-N—((S)-6-guanidino-1-(methylamino)-1-oxohexan-2-yl)thiazole-4-carboxamide]
